pIC50: −log10 of the molar value.
Key:
P388 [1] = test: Growth inhibitory concentration of compound was measured against murine leukemia cell line (P388); type: functional, cell-based; details: Mus musculus
MKN-1 = test: Growth inhibitory concentration of compound was measured against human gastric adenocarcinoma cell line (MKN-1); type: functional, cell-based
PC-14 = test: Growth inhibitory concentration of compound was measured against human lung carcinoma cell line (PC-14); type: functional, cell-based
T-24 = test: Growth inhibitory concentration of compound was measured against human bladder carcinoma cell line (T24); type: functional, cell-based
KB = test: Growth inhibitory concentration of compound was measured against human nasopharyngeal carcinoma cell line (KB); type: functional, cell-based
Melanoma cell line = test: Growth inhibitory concentration of compound was measured against human melanoma cell line (HMV-1); type: functional, cell-based
K562 = test: Growth inhibitory concentration of compound was measured against human leukemia cell line (K562); type: functional, cell-based
P388 [2] = test: Growth inhibitory concentration of compound was measured against DOX resistant P388 cell line (P388 /DOX); type: functional, cell-based; details: Mus musculus
L1210 = test: Growth inhibitory concentration of compound was measured against murine leukemia cell line (L1210); type: functional, cell-based; details: Mus musculus
DNA topoisomerase II = DNA topoisomerase II (Homo sapiens, UniProt P11388+Q02880); test: The compound was tested for its inhibitory activity against topoisomerase II; type: protein assay

| SMILES | pIC50 (P388 [1]) | pIC50 (MKN-1) | pIC50 (PC-14) | pIC50 (T-24) | pIC50 (KB) | pIC50 (Melanoma cell line) | pIC50 (K562) | pIC50 (P388 [2]) | pIC50 (L1210) | IC50 (DNA topoisomerase II) |
| --- | --- | --- | --- | --- | --- | --- | --- | --- | --- | --- |
| CC1OC(Oc2c3c(c4cccnc4c2OC2OC(C)C(O)C(O)C2F)C(=O)c2ccccc2C3=O)C(F)C(O)C1O (configuration not stated) | < 5.07 | < 5.07 | < 5.07 | < 5.07 | < 5.07 | 5.12 | 5.24 | < 5.07 | < 5.07 |  |
| COc1cccc2c1C(=O)c1c(O)c3c(c(O)c1C2=O)C[C@@](O)(C(=O)CO)C[C@@H]3O[C@H]1C[C@H](N)[C@H](O)[C@H](C)O1 [DOXORUBICIN] | 7.70 | 6.19 | 5.72 | 6.19 | 6.66 | 6.55 | 6.92 | < 6.05 | 7.30 |  |
| O=C1c2ccccc2C(=O)c2c1c(O)c(O)c1ncccc21 | 5.16 | 4.85 | < 4.77 | 4.85 | 5.52 | 5.39 | 5.14 | 5.48 | 5.14 |  |
| CC1OC(Oc2c(O)c3c(c4cccnc24)C(=O)c2ccccc2C3=O)C(F)C(O)C1O (configuration not stated) | 6.11 | 6.14 | 6.15 | 6.44 | 6.57 | 6.23 | 6.15 | 6.09 | 6.49 | 5 µM |

— ChEMBL document CHEMBL1133368, “Preparation of 5-(2,6-dideoxy-2-fluoro-alpha-L-talopyranosyloxy)-6-hydroxynap htho[2,3- f]quinoline-7,12-dione (FT-Alz), a new-type, potentially antitumor substance with various biological activities” (Bioorg Med Chem Lett, 2000)
